Data from US5231013A, “Polycyclic peptide antibiotic gallidermin” (priority 1988, dated 1993).
No end group written: not given here.

What was measured:
Format in all cases: cell-based
[1] = test system: St. epidermidis ATCC 12228; experiment: MIC in liquid BF medium
Procedure: (§1) Minimal inhibitory concentrations (MIC, Table 1) were determined in liquid BF medium of the following composition: sodium lactate 0.5%, sodium sulfate 0.5%, potassium dihydrogenphosphate 0.05%, dipotassium hydrogenphosphate 0.15%, magnesium chloride 0.02%, ammonium chloride 0.05%, glucose 1%; supplemented (per ml) with Ca-pantothenate 50 μg, folic acid 0.25 μg, niacin 50 μg, p-aminobenzoic acid 25 μg, pyridoxal hydrochloride 50 μg and riboflavin 25 μg.

[2] = test system: Mc. luteus ATCC 9341; experiment: MIC in liquid BF medium
Procedure: as §1

[3] = test system: Mc. luteus 15957; experiment: MIC in liquid BF medium
Procedure: as §1

[4] = test system: Bac. fragilis (Bonn); experiment: MIC in liquid BF medium
Procedure: as §1

[5] = test system: Ps. aeruginosa BC 19; experiment: MIC in liquid BF medium
Procedure: as §1

[6] = test system: St. aureus SG 511; experiment: MIC in liquid BF medium
Procedure: as §1

[7] = test system: Bac. fragilis (Koln); experiment: MIC in liquid BF medium
Procedure: as §1

[8] = test system: Peptostreptococcus anaerobicus; experiment: MIC in liquid BF medium
Procedure: as §1

[9] = test system: E. coli ATCC 11775; experiment: MIC in liquid BF medium
Procedure: as §1

[10] = test system: Sc. pyogenes ATCC 8668; experiment: MIC in liquid BF medium
Procedure: as §1

[11] = test system: Cb. xerosis ATCC 9755; experiment: MIC in liquid BF medium
Procedure: as §1

[12] = test system: St. pneumoniae ATCC 6302; experiment: MIC in liquid BF medium
Procedure: as §1

[13] = test system: Sc. faecalis ATCC 29212; experiment: MIC in liquid BF medium
Procedure: as §1

[14] = test system: St. aureus E 88; experiment: MIC in liquid BF medium
Procedure: as §1

[15] = test system: Propionibacterium acnes; experiment: Comparative MIC study with epidermin
Excerpt: In a comparative study with epidermin or Propionibacterium acnes the following MIC values were obtained: […]

Gallidermin (IASKFLCTPGCAKTGSFNSYCC; cysteine pairing not given here; also: lantibiotic: post-translational modifications not placed; UniProt P21838 31-52, looked up) [polycyclic lanthionine peptide antibiotic produced by cultivation of Staphylococcus gallinarum (F16/P57) Tu 3928 (DSM 4616)]
MIC [1]: 4 µg/mL | MIC [2]: 0.25 µg/mL | MIC [3]: 0.5 µg/mL | MIC [4]: 128 µg/mL | MIC [5]: 128 µg/mL | MIC [6]: 4 µg/mL | MIC [7]: 128 µg/mL | MIC [8]: 0.5 µg/mL | MIC [9]: 128 µg/mL | MIC [10]: 1 µg/mL | MIC [11]: 1 µg/mL | MIC [12]: 4 µg/mL | MIC [13]: 64 µg/mL | MIC [14]: 8 µg/mL | MIC [15]: 0.125 µg/mL

Epidermin (IASKFICTPGCAKTGSFNSYCC; cysteine pairing not given here; also: lantibiotic: post-translational modifications not placed; UniProt P08136 31-52, looked up) [known polycyclic lanthionine peptide antibiotic obtained by cultivating a strain of Staphylococcus epidermis; differs from gallidermin by one amino acid, reference compound]
MIC [15]: 0.25 µg/mL
